Where a name gives a salt, the structure may show the parent alone. Active and inactive are the calls of the source. No stated cut-off is given here; in the data, actives have a measured Kd and inactives only a lower limit.
Key:
[1] = target: T1, Serine/threonine-protein kinase D2 (Homo sapiens, UniProt Q9BZL6)
T1 sequence (Q9BZL6 whole entry): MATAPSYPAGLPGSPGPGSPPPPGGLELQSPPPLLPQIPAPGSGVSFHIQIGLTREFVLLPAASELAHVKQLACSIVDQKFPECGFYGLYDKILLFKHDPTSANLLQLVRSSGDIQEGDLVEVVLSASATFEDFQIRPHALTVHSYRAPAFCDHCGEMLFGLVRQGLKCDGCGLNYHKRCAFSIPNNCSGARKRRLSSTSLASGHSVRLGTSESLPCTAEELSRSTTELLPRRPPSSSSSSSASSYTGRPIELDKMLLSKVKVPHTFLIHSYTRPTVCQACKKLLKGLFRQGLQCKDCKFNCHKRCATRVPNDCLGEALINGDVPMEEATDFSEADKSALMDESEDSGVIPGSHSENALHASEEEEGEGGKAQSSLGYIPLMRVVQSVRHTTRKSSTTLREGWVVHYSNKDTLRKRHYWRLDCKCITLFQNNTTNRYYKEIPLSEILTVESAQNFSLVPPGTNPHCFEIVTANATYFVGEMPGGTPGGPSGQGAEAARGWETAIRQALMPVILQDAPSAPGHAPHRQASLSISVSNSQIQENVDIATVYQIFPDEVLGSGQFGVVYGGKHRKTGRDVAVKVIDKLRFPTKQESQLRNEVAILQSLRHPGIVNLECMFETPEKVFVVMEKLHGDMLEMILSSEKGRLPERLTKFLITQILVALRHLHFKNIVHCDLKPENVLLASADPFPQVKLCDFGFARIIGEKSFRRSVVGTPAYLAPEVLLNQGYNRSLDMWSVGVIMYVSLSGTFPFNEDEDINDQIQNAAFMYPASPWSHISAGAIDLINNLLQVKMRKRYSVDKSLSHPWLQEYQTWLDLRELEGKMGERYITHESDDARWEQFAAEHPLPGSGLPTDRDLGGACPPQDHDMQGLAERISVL

[2] = target: Cyclin-dependent kinase 6 (Homo sapiens, UniProt Q00534)
[3] = target: T2, Serine/threonine-protein kinase TAO2 (Homo sapiens, UniProt Q9UL54)
T2 sequence (Q9UL54 whole entry): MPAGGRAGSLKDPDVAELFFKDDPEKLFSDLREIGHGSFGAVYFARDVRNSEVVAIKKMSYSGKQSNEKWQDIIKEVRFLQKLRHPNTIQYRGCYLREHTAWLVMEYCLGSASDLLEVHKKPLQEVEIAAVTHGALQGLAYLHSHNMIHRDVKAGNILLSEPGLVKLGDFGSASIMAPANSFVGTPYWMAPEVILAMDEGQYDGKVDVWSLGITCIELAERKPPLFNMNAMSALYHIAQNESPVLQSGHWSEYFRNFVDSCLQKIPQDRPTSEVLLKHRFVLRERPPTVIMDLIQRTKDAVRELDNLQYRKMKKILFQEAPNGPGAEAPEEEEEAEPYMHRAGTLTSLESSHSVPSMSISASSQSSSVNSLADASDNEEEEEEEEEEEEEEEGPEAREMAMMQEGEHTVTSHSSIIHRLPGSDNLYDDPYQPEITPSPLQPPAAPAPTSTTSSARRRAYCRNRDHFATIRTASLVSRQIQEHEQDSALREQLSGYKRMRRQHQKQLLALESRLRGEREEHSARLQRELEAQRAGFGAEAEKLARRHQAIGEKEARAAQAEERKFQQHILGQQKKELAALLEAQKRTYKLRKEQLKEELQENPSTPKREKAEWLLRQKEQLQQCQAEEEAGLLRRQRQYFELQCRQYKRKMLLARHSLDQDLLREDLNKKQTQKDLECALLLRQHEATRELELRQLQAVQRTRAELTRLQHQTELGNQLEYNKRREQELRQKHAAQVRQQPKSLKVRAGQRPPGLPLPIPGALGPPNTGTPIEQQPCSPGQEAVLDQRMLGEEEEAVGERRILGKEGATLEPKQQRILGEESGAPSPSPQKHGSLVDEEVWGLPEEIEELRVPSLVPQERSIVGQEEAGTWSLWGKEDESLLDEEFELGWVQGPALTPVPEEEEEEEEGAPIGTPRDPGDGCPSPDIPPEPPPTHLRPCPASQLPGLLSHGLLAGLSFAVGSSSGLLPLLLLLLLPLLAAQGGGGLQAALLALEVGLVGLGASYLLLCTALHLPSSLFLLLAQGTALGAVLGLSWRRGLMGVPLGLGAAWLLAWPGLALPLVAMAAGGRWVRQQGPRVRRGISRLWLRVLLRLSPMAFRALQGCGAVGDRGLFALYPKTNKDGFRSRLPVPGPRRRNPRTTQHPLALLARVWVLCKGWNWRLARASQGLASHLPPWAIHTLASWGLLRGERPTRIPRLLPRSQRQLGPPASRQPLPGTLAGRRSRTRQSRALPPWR

Cyclin-dependent kinase 6, sequence (Q00534 whole entry): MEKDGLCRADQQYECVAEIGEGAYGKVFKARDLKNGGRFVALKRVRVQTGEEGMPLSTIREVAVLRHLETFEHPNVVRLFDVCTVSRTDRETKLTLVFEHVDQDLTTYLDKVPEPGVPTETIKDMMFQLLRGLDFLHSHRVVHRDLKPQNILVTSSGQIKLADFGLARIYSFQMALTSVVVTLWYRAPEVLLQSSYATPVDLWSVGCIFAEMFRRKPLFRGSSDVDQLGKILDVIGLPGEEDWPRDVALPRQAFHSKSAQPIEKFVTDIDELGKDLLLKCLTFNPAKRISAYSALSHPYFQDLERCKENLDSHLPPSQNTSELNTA

Kd [1] | Kd [2] | Kd [3] | SMILES
> 30 µM (inactive) | > 30 µM (inactive) | > 30 µM (inactive) | C[C@@H](Oc1cc(C(=O)Nc2ccc(C(=O)N3CCN(C)CC3)cc2)nnc1N)c1c(Cl)ccc(F)c1Cl
3.7 µM (active) | > 30 µM (inactive) | > 30 µM (inactive) | C[C@H]1CNCCCN1S(=O)(=O)c1cccc2cncc(F)c12
> 30 µM (inactive) | 2.97 µM (active) | > 30 µM (inactive) | CCNC(=O)C#Cc1ccc2c(c1)NC(=O)/C2=C(\Nc1ccc(CN(C)C)cc1)c1ccccc1
> 30 µM (inactive) | > 30 µM (inactive) | > 30 µM (inactive) | C=CC(=O)N1CCC[C@H](n2c(=O)n(-c3ccc(Oc4ccccc4)cc3)c3c(N)ncnc32)C1
> 30 µM (inactive) | > 30 µM (inactive) | 1.73 µM (active) | Cc1nc2cc(-c3nn(C(C)C)c4ncnc(N)c34)ccc2o1
> 30 µM (inactive) | > 30 µM (inactive) | > 30 µM (inactive) | COCc1c(-c2ccc(NC(=O)Nc3cc(C(F)(F)F)ccc3F)c(F)c2)c2c(N)ncnn2c1CN1CCOCC1
> 30 µM (inactive) | > 30 µM (inactive) | > 30 µM (inactive) | Nc1ncnc2c1c(-c1cccc(OCc3ccccc3)c1)cn2[C@H]1C[C@@H](CN2CCC2)C1 [AEW-541]
 | > 30 µM (inactive) | > 30 µM (inactive) | COc1cc(Nc2ncc3c(n2)-c2ccc(Cl)cc2C(c2c(F)cccc2OC)=NC3)ccc1C(=O)O [ALISERTIB]
> 30 µM (inactive) | > 30 µM (inactive) | > 30 µM (inactive) | Cc1nc(NC(=O)N2CCC[C@H]2C(N)=O)sc1-c1ccnc(C(C)(C)C(F)(F)F)c1 [ALPELISIB]
5.67 µM (active) | > 30 µM (inactive) | > 30 µM (inactive) | Cc1csc(-c2nnc(Nc3ccc(Oc4ncccc4-c4ccnc(N)n4)cc3)c3ccccc23)c1 [AMG-900]
 |  | > 30 µM (inactive) | O=C(Nc1c[nH]nc1-c1nc2cc(CN3CCOCC3)ccc2[nH]1)NC1CC1 [AT-9283]
> 30 µM (inactive) | > 30 µM (inactive) | > 30 µM (inactive) | C=CC(=O)Nc1cc2c(Nc3ccc(F)c(Cl)c3)ncnc2cc1C#CC(C)(C)N1CCN(C)CC1 [AV-412 FREE BASE]
 | > 30 µM (inactive) |  | CNC(=O)c1ccccc1Sc1ccc2c(/C=C/c3ccccn3)n[nH]c2c1 [AXITINIB]
> 30 µM (inactive) | > 30 µM (inactive) | > 30 µM (inactive) | Cc1cc(C(=O)NOCCO)c(Nc2ccc(I)cc2F)n(C)c1=O [AZD-8330]
> 30 µM (inactive) | > 30 µM (inactive) | > 30 µM (inactive) | Cn1cnc2c(F)c(Nc3ccc(Br)cc3F)c(C(=O)NOCCO)cc21 [BINIMETINIB]
> 30 µM (inactive) | > 30 µM (inactive) | > 30 µM (inactive) | CCn1c(C(=O)N(C2CC2)C2CC2)cc2c3c(ncn3C)c(Nc3cc(C)n(C)n3)nc21 [BMS-911543]

Kd [1] | Kd [2] | Kd [3] | SMILES
> 30 µM (inactive) | > 30 µM (inactive) | > 30 µM (inactive) | COc1cc2ncnc(Oc3cccc(NC(=O)Nc4cc(C(C)(C)C(F)(F)F)on4)c3)c2cc1OC [CEP-32496]
> 30 µM (inactive) | > 30 µM (inactive) | > 30 µM (inactive) | Cc1cc(Nc2ncc(Cl)c(Nc3ccccc3S(=O)(=O)C(C)C)n2)c(OC(C)C)cc1C1CCNCC1 [CERITINIB]
> 30 µM (inactive) | > 30 µM (inactive) | > 30 µM (inactive) | COc1c(OCCCN2CCOCC2)ccc2c1N=C(NC(=O)c1cnc(N)nc1)N1CCN=C21 [COPANLISIB]
> 30 µM (inactive) | > 30 µM (inactive) | > 30 µM (inactive) | COCC(=O)NC/C=C/c1ccc2ncnc(Nc3ccc(Oc4ccc(C)nc4)c(C)c3)c2c1 [CP-724714]
> 30 µM (inactive) | > 30 µM (inactive) | > 30 µM (inactive) | C#Cc1cccc(Nc2ncnc3cc(OC)c(OCCCCCCC(=O)NO)cc23)c1 [CUDC-101]
1.21 µM (active) | > 30 µM (inactive) | 2.22 µM (active) | CCS(=O)(=O)N1CCN(c2ccc(Nc3ncc(C(N)=O)c(NC4CC4)n3)cc2)CC1 [Cerdulatinib Hydrochloride]
> 30 µM (inactive) | > 30 µM (inactive) | > 30 µM (inactive) | Cc1nc2cc(-n3ncc(C(=O)c4cc5ccccc5[nH]4)c3N)ccc2[nH]1 [FGFR INHIBITOR DEBIO 1347]
 | > 30 µM (inactive) |  | C[C@@H](Oc1cc(-n2cnc3ccc(CN4CCN(C)CC4)cc32)sc1C(N)=O)c1ccccc1C(F)(F)F [GSK-461364]
 | > 30 µM (inactive) |  | CCn1cc(-c2ccnc3[nH]c(-c4cccc(CN(C)C)c4)cc23)c(-c2ccc(NC(=O)N(C)C)cc2)n1 [GSK-1070916]
 | > 30 µM (inactive) | > 30 µM (inactive) | Cc1[nH]c(/C=C2\C(=O)Nc3ccccc32)c(C)c1CCC(=O)O [ORANTINIB]
 | > 30 µM (inactive) | > 30 µM (inactive) | NC(=O)c1c(OCc2c(F)cc(Br)cc2F)nsc1NC(=O)NCCCCN1CCCC1 [OSI-632]
 | > 30 µM (inactive) | > 30 µM (inactive) | Cc1nc(Nc2n[nH]c3c2CN(C(=O)N[C@H](CN(C)C)c2ccccc2)C3(C)C)c2sccc2n1 [PF-03758309]
 | 2.08 µM (active) | 2.05 µM (active) | CC(=O)NCC(=O)N1[C@@H]2CC[C@H]1c1ccc(Nc3ncc(C(F)(F)F)c(NC4CCC4)n3)cc12 [PF-03814735]
 | > 30 µM (inactive) |  | O=C(NOCCO)c1cc(CN2OCCCC2=O)c(F)c(F)c1Nc1ccc(I)cc1F [RO-4987655]
 | > 30 µM (inactive) |  | N#CC[C@H](C1CCCC1)n1cc(-c2ncnc3[nH]ccc23)cn1 [RUXOLITINIB]
 | > 30 µM (inactive) | > 30 µM (inactive) | Cn1ncc(Cl)c1-c1cc(C(=O)N[C@H](CN)Cc2ccc(F)c(F)c2)oc1Cl [UPROSERTIB]

SMILES | Kd [1] | Kd [2] | Kd [3]
CC(=O)c1cnc2ccc(-c3cc(Cl)c(O)c(Cl)c3)nc2c1N[C@H]1CC[C@H](CN(C)C)CC1 | 0.069 µM (active) | > 30 µM (inactive) | 0.01 µM
COc1cc([C@@H]2c3cc4c(cc3[C@H](O)[C@H]3COC(=O)[C@@H]23)OCO4)cc(OC)c1OC [AXL-1717] | > 30 µM (inactive) | > 30 µM (inactive) | > 30 µM (inactive)
NC(=O)Nc1cc(-c2cccc(F)c2)sc1C(=O)N[C@H]1CCCNC1 [AZD-7762] | 1.16 µM (active) | > 30 µM (inactive) | > 30 µM (inactive)
CC(C)(C)c1nc(-c2cccc(NS(=O)(=O)c3c(F)cccc3F)c2F)c(-c2ccnc(N)n2)s1 [DABRAFENIB] | 0.034 µM (active) | 0.318 µM (active) | > 30 µM (inactive)
Cn1cc(C2=C(c3cn(C4CCN(Cc5ccccn5)CC4)c4ccccc34)C(=O)NC2=O)c2ccccc21 [ENZASTAURIN] |  | > 30 µM (inactive) | 
O=C(Nc1nc2cccc(-c3ccc(CN4CCS(=O)(=O)CC4)cc3)n2n1)C1CC1 [FILGOTINIB] | > 30 µM (inactive) | > 30 µM (inactive) | > 30 µM (inactive)
O=C(Nc1cc(C(F)(F)F)cc(C(F)(F)F)c1)c1cc(Cl)ccc1O [IMD-0354] |  | > 30 µM (inactive) | > 30 µM (inactive)
